In series [1] the test system is human cell line NCI-H1155 xenograft. In words: N-Myc-driven mouse xenograft model, NCI-H1155, compound 210 oral. Type of series: in vivo.
The subject of series [2] is NSCLC cell lines expressing high levels of N-Myc (NCI-H1155, ABC-1). In words: Viability of NSCLC cell lines treated with compound 210. Type of series: cell-based, human. The conditions noted are these: compared to low N-Myc lines EBC-1, NCI-H2023. The method, then:
GSPT1 was degraded by compound 210 after six hours of treatment in high N-Myc NCI-H1155 and ABC-1 cells with a DC50 of 3 nM and 22 nM, respectively (x-axis represents M concentration of compound 210; y-axis represents the viability in %).

The next series concerns the target GSPT1 (Homo sapiens, UniProt P15170+Q96SW2). Description: GSPT1 degradation by immunoblotting in cancer cell lines (Compound 345). Type of series: cell-based. Also on record: endogenous in cells; host or cells: MM1 S (ATCC CRL-2974). The conditions noted are these: for GSPT1 degradation (immunoblots): 0.03, 0.3, 3 μM; for DC50: read-out: GSPT1 DC50. The method, then: Two high N-Myc expressing NSCLC cell lines (NCI-H155 and ABC-1) and two low N-Myc expressing NSCLC cell lines (NCI-H2023 and NCI-H441) were treated with Compound 345 in culture. Cells were treated with increasing concentrations of the compound (0.0; 0.00064; 0.0032; 0.016; 0.08; 0.4; 2.0; 10; and 30 nM), lysates were prepared, SDS-PAGE and immunoblotting was performed, and transfer membranes were probed for GSPT1 and GAPDH as a loading control. Expression levels of GSPT1 detected in the immunoblots of this experiment are plotted against concentration of Compound 345 in FIG. 10B. DC50 values (the concentration of the compound at which the target protein is degraded by 50%) were estimated for each cell line. NCI-H155, DC50=14 nM; ABC-1, DC50=76 nM; NCI-H2023, DC50=18 nM; NCI-H441, DC50=8.7 nM. Estimated Dmax for all cell lines was 95%-99%.
GSPT1 and N-Myc western blotting analyses from cell line lysates: NCI-H1155, NCI-H2023, NCI-H441, ABC-1, NCI-H1836, NCI-H1876, MM.1S, DOHH2 and WSU-DLCLC2 cells were typically seeded in a 6 or 12 well plate (0.3 to 1.0×10^6 cells/mL) and incubated overnight. Compound 345 was dissolved in DMSO to obtain a 10 mM stock solution, and aliquots were stored at −20° C. The next day, cells were treated with various concentrations of Compound 345 or DMSO (Sigma, D2650) using a HP D300 dispenser (Tecan). Controls were pretreated for 30 minutes with Bortezomib (0.2 μM). Cells were washed with ice cold PBS at the indicated timepoints post addition of Compound 345 and lysed with 50 to 100 μL lysis buffer containing RIPA buffer (Invitrogen, R0278) and a mix of protease inhibitor cocktail (Sigma, P8340, 5726 and 0044). Protein concentration was assessed using the BCA assay (Pierce™ Rapid Gold BCA Protein Assay Kit, A53227) and 10 μg of protein was typically loaded onto a TGX Stain free 4-20% Criterion gel (Biorad, 5678095) for separation. Gel was transferred onto a 0.2 μm nitrocellulose membrane using the TransBlot transfer system (Biorad). Membranes were blocked in Every Blot Blocking Buffer (Biorad, 12010020) and incubated overnight at 4° C. with either of the following primary antibody: anti-GSPT1 diluted 1/5000th (Sigma, HPA052488), anti-N-Myc clone D1V2A diluted 1/1000th (Cell Signaling Technology, 84406), anti-α-Tubulin clone DM1A Alexa Fluor® 488 Conjugated (Cell Signaling Technology, Cat. No. CST8058) or anti-GAPDH Alexa647-coupled diluted 1/2500th (Invitrogen, MA5-15738-A647). The next day, a secondary HRP-conjugated goat anti-rabbit secondary antibody (Invitrogen, A16110) was used to allow detection of unlabelled primary antibodies. Membranes were imaged on a ChemiDoc imager (Biorad) using either fluorescence or chemiluminescence detection. Images were quantified using the Image Lab Software Version 6.1 (Biorad). Images were adjusted for alignment and contrast. Columns were manually defined to enable the band detection by the software. Band intensities, or densitometries, were exported to Excel (Microsoft® Excel® for Microsoft 365 MSO Version 2110) for further analysis. Briefly, band intensity for the protein of interest was normalized to the DMSO control, before being normalized to the GAPDH band intensity for the same column. Normalised data was transferred to GraphPad Prism 8.1.2 (GraphPad) and fitted using a four parameters models ([Inhibitor] vs. response—Variable slope) defined by the following equation: Y=Dmax+(Top−Dmax)/(1+(DC50/X)^HillSlope). Key degradation parameters reported included DC50 (concentration at which the GSPT1 total protein levels are reduced by 50%) and Dmax (maximum fractional amount of protein degraded).

[3] abbreviates: MM1 S multiple myeloma cells, 24 hours.

Read-outs that look alike come from different tables or passages of the source.

Results on two compounds are retold here after US20240261274A1, “TREATMENT OF MYC-DRIVEN CANCERS WITH GSPT1 DEGRADERS” (MONTE ROSA THERAPEUTICS, INC., priority 2021, published 2024).

Sequence of GSPT1 (P15170 whole entry): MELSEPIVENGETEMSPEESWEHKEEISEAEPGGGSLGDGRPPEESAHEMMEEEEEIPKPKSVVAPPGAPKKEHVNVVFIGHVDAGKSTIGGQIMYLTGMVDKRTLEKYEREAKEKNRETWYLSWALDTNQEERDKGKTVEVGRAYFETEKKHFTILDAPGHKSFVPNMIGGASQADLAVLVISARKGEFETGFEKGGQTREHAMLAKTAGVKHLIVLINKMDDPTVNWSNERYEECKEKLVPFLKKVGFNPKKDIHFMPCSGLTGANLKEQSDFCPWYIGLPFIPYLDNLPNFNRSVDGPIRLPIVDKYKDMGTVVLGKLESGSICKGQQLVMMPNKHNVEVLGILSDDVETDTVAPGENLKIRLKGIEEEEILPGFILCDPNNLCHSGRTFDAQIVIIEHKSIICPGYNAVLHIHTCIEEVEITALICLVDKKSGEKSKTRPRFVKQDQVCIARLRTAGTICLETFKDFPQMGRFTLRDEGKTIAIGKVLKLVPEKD
Sequence of GSPT1 (Q96SW2 whole entry): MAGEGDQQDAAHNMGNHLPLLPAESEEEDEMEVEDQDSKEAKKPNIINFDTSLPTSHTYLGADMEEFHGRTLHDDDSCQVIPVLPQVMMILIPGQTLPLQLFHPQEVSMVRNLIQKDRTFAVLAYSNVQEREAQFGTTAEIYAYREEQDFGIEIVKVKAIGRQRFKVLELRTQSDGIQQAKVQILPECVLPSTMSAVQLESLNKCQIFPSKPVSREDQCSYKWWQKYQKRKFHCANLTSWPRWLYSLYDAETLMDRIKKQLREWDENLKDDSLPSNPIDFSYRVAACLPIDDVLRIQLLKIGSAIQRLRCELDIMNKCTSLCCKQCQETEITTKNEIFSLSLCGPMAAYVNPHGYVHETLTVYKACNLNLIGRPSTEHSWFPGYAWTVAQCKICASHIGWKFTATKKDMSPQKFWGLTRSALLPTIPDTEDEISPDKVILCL
Sequence of GSPT1 (Q16531 whole entry partner): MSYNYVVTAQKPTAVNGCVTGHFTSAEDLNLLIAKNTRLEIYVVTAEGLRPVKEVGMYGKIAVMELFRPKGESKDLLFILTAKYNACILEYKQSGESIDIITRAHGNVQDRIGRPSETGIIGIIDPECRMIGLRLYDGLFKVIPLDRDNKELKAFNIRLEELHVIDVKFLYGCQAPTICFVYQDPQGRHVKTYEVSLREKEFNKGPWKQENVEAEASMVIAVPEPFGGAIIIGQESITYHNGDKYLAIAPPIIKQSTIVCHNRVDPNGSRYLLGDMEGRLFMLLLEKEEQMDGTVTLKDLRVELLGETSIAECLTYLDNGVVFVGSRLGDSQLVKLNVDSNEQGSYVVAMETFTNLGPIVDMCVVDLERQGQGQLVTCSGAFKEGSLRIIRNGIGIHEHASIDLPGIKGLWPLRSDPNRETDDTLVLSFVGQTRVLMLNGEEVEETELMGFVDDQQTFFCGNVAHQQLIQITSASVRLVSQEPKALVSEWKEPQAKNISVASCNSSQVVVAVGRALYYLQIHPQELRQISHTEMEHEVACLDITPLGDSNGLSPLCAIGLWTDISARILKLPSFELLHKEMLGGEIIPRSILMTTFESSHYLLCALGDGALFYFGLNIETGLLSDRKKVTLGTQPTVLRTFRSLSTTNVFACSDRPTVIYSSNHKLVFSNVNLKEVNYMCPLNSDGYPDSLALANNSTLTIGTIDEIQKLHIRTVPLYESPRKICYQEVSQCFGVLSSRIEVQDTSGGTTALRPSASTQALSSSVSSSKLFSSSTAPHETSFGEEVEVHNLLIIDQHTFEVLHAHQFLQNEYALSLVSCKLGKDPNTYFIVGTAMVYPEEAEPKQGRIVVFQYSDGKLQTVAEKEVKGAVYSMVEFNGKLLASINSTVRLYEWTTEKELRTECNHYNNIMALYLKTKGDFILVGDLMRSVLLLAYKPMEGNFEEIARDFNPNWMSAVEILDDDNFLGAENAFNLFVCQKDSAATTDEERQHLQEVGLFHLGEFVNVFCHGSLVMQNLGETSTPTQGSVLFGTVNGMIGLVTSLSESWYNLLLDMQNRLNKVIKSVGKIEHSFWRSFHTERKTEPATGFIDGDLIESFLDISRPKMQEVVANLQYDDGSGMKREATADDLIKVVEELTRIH

With `Cc1ccc(NC(=O)OCc2ccc3c(c2)C(=O)N(C2CCC(=O)NC2=O)C3)cc1Cl` (centres unmarked) [Compound 210], the tumor growth entry in series [1] (1 mg/kg once daily PO) is reported as “tumor growth was suppressed for two weeks”; in series [1] (oral administration (PO)) it was “tumor growth inhibition”. Further, the tumor size result in series [1] (3 mg/kg once daily PO) was “tumor size decreased, became undetectable by day eight and remained so until the end of the study at day 21”; in series [1] (6 mg/kg PO, five days on and nine days off), “tumor size decreased, became undetectable by day eight and remained so until the end of the study at day 21”. Also, the body weight result in series [1] (oral administration (PO)) was “no body weight loss observed”. Besides, the “sensitivity to treatment (viability)” value in series [2] was “highly sensitive”.

For `O=C1CCC(N2Cc3ccc(COC(=O)Nc4cc(OC(F)(F)F)ccc4F)cc3C2=O)C(=O)N1` (centres unmarked) [Compound 345, (2-(2,6-dioxopiperidin-3-yl)-3-oxoisoindolin-5-yl)methyl(2-fluoro-5-(trifluoromethoxy)phenyl)carbamate], the Dmax (usually the greatest extent of degradation seen) at GSPT1 (setting [3]) is 100%; on GSPT1 (WSUDLCL2, WSU-DLCL2 triple hit lymphoma cells, 24 hours), 100%; at GSPT1 (all cell lines (NCI-H155, ABC-1, NCI-H2023, NCI-H441)), 95 to 99%. The “GSPT1 degradation (immunoblots)” value on GSPT1 (NCI-H155 and NCI-H2023, 0, 2, 6 hours) was “efficient degradation of GSPT1 in a time and dose dependent manner”; on GSPT1 (SCLC cell lines NCI-H1836 and NCI-H1876, up to 24 hours), “efficient degradation of GSPT1 in SCLC cell lines in a time and dose dependent manner”. Further, the DC50 (in general, the concentration at which degradation of the target reaches its halfway point) at GSPT1 (ABC-1 (high N-Myc NSCLC)) was 76 nM; at GSPT1 (setting [3]) it was 6 nM; at GSPT1 (NCI-H155 (high N-Myc NSCLC)) it was 14 nM; at GSPT1 (NCI-H441 (low N-Myc NSCLC)), 8.7 nM; at GSPT1 (NCI-H2023 (low N-Myc NSCLC)), 18 nM; on GSPT1 (WSU-DLCL2 triple hit lymphoma cells, 24 hours) it was 24 nM.
